Literature values in US20030109682A1, “Maytansines and maytansine conjugates” (priority 2001, published 2003).

Key:
[1] = system: acute lymphocytic leukemia, breast carcinoma, ovarian cancer, thymoma, melanoma, and non-small scale lung cancer; settings: Phase I, patients with acute lymphocytic leukemia
[2] = Phase II trials

In the case of `COc1cc2cc(c1Cl)N(C)C(=O)C[C@H](OC(=O)[C@H](C)N(C)C(C)=O)[C@]1(C)O[C@H]1[C@H](C)[C@@H]1C[C@@](O)(NC(=O)O1)[C@H](OC)/C=C/C=C(\C)C2` [Maytansine], the clinical response [1] is listed as “encouraging responses”, the gastrointestinal toxicity [2] is listed as “manageable gastrointentinal toxicity” and the “neurotoxicity at the site of administration” value [2] is listed as “pain of such magnitude as to prevent further administration”.
